{"source": "patent US20080318775A1", "about": "“Safening of pesticides with cyclopropenes” (priority 2007, published 2008)", "key": {"[1]": {"system": "GLYPHOSATE-resistant soybeans", "assay": "Plant height of soybeans sprayed with 0.5% GLYPHOSATE with or without 1-MCP"}, "[2]": {"system": "GLYPHOSATE-resistant soybeans", "assay": "Plant height of soybeans sprayed with 2% GLYPHOSATE with or without 1-MCP"}, "[3]": {"system": "GLYPHOSATE-resistant soybeans", "assay": "Plant height of soybeans sprayed with 0.05% PHYSAN 20 fungicide/antimicrobial agent with or without 1-MCP", "format": "in vivo", "settings": "10 ppm 1-MCP with 0.05% PHYSAN 20; plant height after 21 days"}, "[4]": {"system": "GLYPHOSATE-resistant soybeans", "settings": "in vivo"}, "[5]": {"system": "GLYPHOSATE-resistant soybeans", "settings": "in vivo", "remark": "listed apart in the source"}}, "note": "Where two headings read alike, the source gives them in different places.", "data": [{"smiles": "O=C(O)CNCP(=O)(O)O", "note": "[GLYPHOSATE, reference compound]", "values": [{"measurement": "Plant Height", "setting": "[1]; greenhouse, sprayed to run off at second true leaves, 0.5% GLYPHOSATE, 10 ppm 1-MCP (as α-cyclodextrin complex), adjuvant 0.1% Quillaja Saponin, 21 days after spray, untreated control 126", "result": 112.1}, {"measurement": "Plant Height", "setting": "[2]; greenhouse, sprayed to run off at second true leaves, 2% GLYPHOSATE, 10 ppm 1-MCP (as α-cyclodextrin complex), adjuvant 0.1% Quillaja Saponin, 21 days after spray, untreated control 126", "result": 112.9}]}, {"smiles": "CC1=CC1", "note": "[1-MCP, 1-methylcyclopropene]", "values": [{"measurement": "Effect on growth reduction caused by the herbicide (in words)", "setting": "[1]; 10 ppm 1-MCP with 0.5% GLYPHOSATE, plant height after 21 days", "result": "able to prevent the growth reduction caused by the herbicide"}, {"measurement": "Effect compared to the fungicide-treated plants (in words)", "setting": "[3]", "result": "positive effect"}, {"measurement": "Effect on the negative effect of the fertilizer on plant growth (in words)", "setting": "[4]", "result": "able to alleviate some of that effect"}, {"measurement": "Effect on setback caused by the insecticide (in words)", "setting": "[5]", "result": "able to mediate some of the setback caused by the insecticide"}, {"measurement": "Effect on plant height / effect of the herbicide (in words)", "setting": "[2]; 10 ppm 1-MCP with 2% GLYPHOSATE, with or without 0.1% Quillaja Saponin adjuvant, plant height after 21 days", "result": "improved the height"}]}, {"smiles": "CNC(=O)Oc1cccc2ccccc12", "note": "[CARBARYL, reference compound]", "values": [{"measurement": "Plant Height", "setting": "[5]", "result": 112.8}]}]}
